Measured values: publication PMC9024805, “Non-Effective Improvement of Absorption for Some Nanoparticle Formulations Explained by Permeability under Non-Sink Conditions” (Pharmaceutics, 2022)

What was measured:
[1] = Permeability under sink conditions (previous study / calculated for Figure 11); assay type: in vitro ADME; conditions: not told, given in Figure 11
Excerpt: To assess the impact of permeability under non-sink conditions, we compared it with that under sink conditions.

[2] = parameters: method as in PMID 33801447; conditions: previous study ref 25; cited from earlier work
[3] = Solubility from concentrations in the donor chambers; conditions: pH 6.5, 37 °C
Procedure: At 0, 30, 60, 120, 240 and 360 min, 100 μL of the acceptor chamber solution was withdrawn and diluted 2-fold. […] To measure the exact concentration in the donor chamber containing the nanosuspensions, the filtration method was applied according to a previous report [32]. Then, 100 μL of the filtered solution was diluted 2-fold. The sample concentration was determined by ultra-high-performance liquid chromatography (UHPLC).

[4] = parameters: method as in PMID 17694546; conditions: cited from earlier work

Papp [1]	Effect of nanonization / particle size on solubility [3]	Structure (SMILES)	Papp under sink conditions [2]	Papp using PAMPA relative to that of griseofulvin [4]
250 ×10⁻⁶ cm/s	not improved by nanonization	COC1=CC(=O)C[C@@H](C)[C@]12Oc1c(Cl)c(OC)cc(OC)c1C2=O [griseofulvin]	247 ×10⁻⁶ cm/s	
		CC(=O)[C@H]1CC[C@H]2[C@@H]3CCC4=CC(=O)CC[C@]4(C)[C@H]3CC[C@]12C [progesterone]		2–3 times
